Experimental data taken from ChEMBL document CHEMBL2439959, “Structural study of the location of the phenyl tail of benzene sulfonamides and the effect on human carbonic anhydrase inhibition” (Bioorg Med Chem, 2013).

How the values were obtained:
[1] = biological target: Carbonic anhydrase 5B, mitochondrial (Homo sapiens, UniProt Q9Y2D0)
[2] = biological target: Carbonic anhydrase 5A, mitochondrial (Homo sapiens, UniProt P35218)
Carbonic anhydrase 5A, mitochondrial, sequence (P35218 whole entry): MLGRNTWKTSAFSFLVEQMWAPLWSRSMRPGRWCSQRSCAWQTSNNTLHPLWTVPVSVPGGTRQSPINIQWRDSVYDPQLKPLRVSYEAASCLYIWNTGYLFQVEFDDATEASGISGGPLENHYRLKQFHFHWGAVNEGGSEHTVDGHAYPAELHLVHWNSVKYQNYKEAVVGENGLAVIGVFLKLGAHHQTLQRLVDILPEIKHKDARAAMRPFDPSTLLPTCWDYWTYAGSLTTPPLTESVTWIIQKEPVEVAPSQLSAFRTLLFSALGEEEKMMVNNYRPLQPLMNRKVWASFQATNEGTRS

Carbonic anhydrase 5B, mitochondrial, sequence (Q9Y2D0 whole entry): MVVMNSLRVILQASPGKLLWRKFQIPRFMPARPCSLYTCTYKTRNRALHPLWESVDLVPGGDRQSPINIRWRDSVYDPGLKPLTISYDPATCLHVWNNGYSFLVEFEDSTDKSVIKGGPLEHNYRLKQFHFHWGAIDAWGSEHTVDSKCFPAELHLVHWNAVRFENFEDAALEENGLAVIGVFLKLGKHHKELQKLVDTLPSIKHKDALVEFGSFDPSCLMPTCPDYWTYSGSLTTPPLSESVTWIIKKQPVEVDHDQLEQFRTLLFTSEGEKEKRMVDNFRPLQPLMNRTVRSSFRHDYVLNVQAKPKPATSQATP

NS(=O)(=O)c1ccc(NC(=O)Cc2ccccc2)cc1
Ki [1]: 0.01 µM | Ki [2]: 0.013 µM

NS(=O)(=O)c1ccc(Nc2nc(Cl)nc(NCCO)n2)cc1
Ki [1]: 0.34 µM | Ki [2]: 0.451 µM
